Experimental data published in patent US20230218558A1, “NOVEL THERAPEUTIC USE OF PLEUROMUTILINS” (priority 2020, published 2023).
pEC50: −log10 of the molar value. Values after ≈ are worked out from the molar mass of the structure shown. Read-outs that look alike come from different tables or passages of the source.

Tests used:
Huh7 cells = experiment: Cell viability, Huh7 cells, XTT
MDCK cells = conditions: Example 10; for CC50: read-out: TC50, MDCK cells
[1] = system: human rhinovirus strain HRV16 strain 11757; experiment: Inhibition of virus-induced CPE, human rhinovirus in H1-HeLa cells; format: cell-based; conditions: Example 9, rhinovirus HRV1611757, 4 h pretreatment, MOI 0.0005
Protocol: Cell viability determination as well as EC50 and TC50 calculations were performed as described in Examples 1 and 3.

[2] = system: influenza A/Puerto Rico/8/34 (H1N1); format: in vivo, BALB/c mice; conditions: for effect on bodyweight / bodyweight loss: SC, investigated doses, FIG. 7A; for lung viral titre (TCID50 on MDCK cells): Day 3 and Day 6, Lefamulin at both doses, compared with vehicle treated control
HeLa cells = experiment: Cell viability, HeLa cells, XTT; conditions: read-out: TC50, Example 6
MRC-5 cells [3] = experiment: Cell viability of uninfected drug control wells, MRC-5 cells, XTT; conditions: Example 1; for cytotoxic effect on the viability of the cell control: concentration 10 μM (b103 prints 10 M for Lefamulin); for cytotoxic effect: concentration 50 μM
[4] = system: influenza virus strain A/PR/8/34; experiment: Inhibition of virus-induced CPE, influenza virus in MDCK cells; format: cell-based
HEp2 cells = experiment: Cell viability of uninfected drug control wells, HEp2 cells, XTT; conditions: Example 3
polio virus = conditions: cited from earlier work
[5] = system: vesicular stomatitis virus (VSV); conditions: cited from earlier work
[6] = system: herpes simplex type 1 (HSV-1) virus; conditions: cited from earlier work
[7] = system: influenza A virus strain (PR8); conditions: concentration of 2 mg/mL; cited from earlier work
MRC-5 cells [8] = conditions: human
[9] = system: Measles virus strain Edmonston; experiment: microbe, parasite or virus in culture; format: cell-based; conditions: Measles morbillivirus, HeLa
[10] = system: influenza A virus, porcine reproductive and respiratory syndrome virus (PRRSV) type 1 and 2; conditions: WO 2009/106839; 4 hours post inoculation; cited from earlier work
[11] = read-out: TC50, Example 8, Zika experiment
[12] = high dose: 105 mg/kg/day SC in three injections until day 3, then 70 mg/kg twice daily

## C=C[C@]1(C)C[C@@H](OC(=O)CS[C@@H]2CC[C@@H](N)C[C@H]2O)[C@]2(C)C(C)CC[C@]3(CCC(=O)[C@H]32)[C@@H](C)[C@@H]1O (stereo partly drawn) [Lefamulin, 14-O-{[(1R, 2R, 4R)-4-amino-2-hydroxy-cyclohexylsulfanyl]-acetyl}-mutilin]
Huh7 cells; read-out: TC50, Example 7, Dengue experiment
  CC50: 23.3 µM
Huh7 cells; [11]
  CC50: 23.4 µM
MDCK cells
  concentrations cytotoxic to MDCK cells: greater than 23 μM
  CC50: 23.8 µM
[1]
  pEC50: 5.03
[2]; BALB/c mice
  effect on bodyweight / bodyweight loss: did not have a significant effect
[2]
  lung viral titre (TCID50 on MDCK cells): reduced lung viral titres
[2]; [12]
  clinical scores compared to vehicle: increase in clinical scores
  survival compared to vehicle: decrease in survival
[2]; high dose, Day 6 lungs, compared to vehicle
  bronchial degeneration and alveolar inflammation (histopathology): significant reduction
[2]; high dose, Day 6 lungs, compared to vehicle treated control
  overall histopathology score: overall significant reduction
[2]; lower dose: 35 mg/kg SC twice daily (70 mg/kg/day), until day 6
  survival: 90%
HeLa cells
  CC50: 72.7 µM
MRC-5 cells [3]
  cytotoxic effect on the viability of the cell control: no cytotoxic effect
  cytotoxic effect: cytotoxic effect
MRC-5 cells [3]; uninfected MRC-5 cells, 6 days
  TC50: 55.3 µM
[4]
  pEC50: < 4.62
HEp2 cells; concentration 100 μM
  cytotoxic effect: cytotoxic effect
HEp2 cells; concentrations 10 μM and 50 μM
  cytotoxic effect on the viability of the cell control: no cytotoxic effect

## CCOC(=O)C1=C[C@@H](OC(CC)CC)[C@H](NC(C)=O)[C@@H](N)C1 [Oseltamivir]
MDCK cells
  CC50: > 200 µM
[2]; BALB/c mice
  effect on bodyweight / bodyweight loss: reduction
[2]; BALB/c mice, positive control treatment, FIG. 7B
  clinical scores: reduction
[2]
  lung viral titre (TCID50 on MDCK cells): reduced lung viral titres
[4]
  pEC50: 7.22

## C=C[C@]1(C)C[C@@H](OC(=O)CO)[C@]2(C)[C@H](C)CC[C@]3(CCC(=O)[C@H]32)[C@@H](C)[C@@H]1O [Pleuromutilin]
Polio virus
  antiviral activity: did not show antiviral activity
[5]
  activity against vesicular stomatitis virus: activity
[6]
  concentration that conferred a 50% protection of the cytopathic effect induced by HSV-1 (CPE50): 15 µg/mL
[6]; read-out: concentration that conferred a 50% protection of the cytopathic effect induced by HSV-1 (CPE50)
  pEC50: 4.40
[7]
  antiviral activity: antiviral activity

## CCC(CC)COC(=O)[C@H](C)N[P@](=O)(OC[C@H]1O[C@@](C#N)(c2ccc3c(N)ncnn23)[C@H](O)[C@@H]1O)Oc1ccccc1 [Remdesivir]
MRC-5 cells [8]
  CC50: > 5 µM

## NC(=O)c1ncn([C@@H]2O[C@H](CO)[C@@H](O)[C@H]2O)n1 [Ribavirin]
[9]
  EC50: 1.88 µg/mL (≈ 7.7 µM)

## CCOC(=O)/C=C/[C@H](C[C@@H]1CCNC1=O)NC(=O)[C@@H](CC(=O)[C@@H](NC(=O)c1cc(C)on1)C(C)C)Cc1ccc(F)cc1 [Rupintrivir]
[1]
  pEC50: 8.31

## CC(C)OC(=O)[C@H](C)N[P@](=O)(OC[C@H]1O[C@@H](n2ccc(=O)[nH]c2=O)[C@](C)(F)[C@@H]1O)Oc1ccccc1 [Sofosbuvir]
Huh7 cells; [11]
  CC50: > 10 µM

## C=C[C@]1(C)C[C@@H](OC(=O)CSCCN(CC)CC)[C@]2(C)[C@H](C)CC[C@]3(CCC(=O)[C@H]32)[C@@H](C)[C@@H]1O [Tiamulin]
MRC-5 cells [8]; 6 days
  CC50: 62.9 µM
MRC-5 cells [3]
  cytotoxic effect on the viability of the cell control: no cytotoxic effect was observed
  cytotoxic effect: a cytotoxic effect was observed
HEp2 cells; concentration 10 μM
  viability: 84%
HEp2 cells; concentration 50 μM
  viability: 70.0%

## C=C[C@]1(C)C[C@@H](OC(=O)CSC(C)(C)CNC(=O)[C@H](N)C(C)C)[C@]2(C)[C@H](C)CC[C@]3(CCC(=O)[C@H]32)[C@@H](C)[C@@H]1O [Valnemulin]
[10]
  antiviral activity: did not exhibit antiviral activity
